Reference: US20220041691A1, “METHODS FOR DIAGNOSING OR TREATING POST-TRAUMATIC STRESS DISORDER, AND COMPOSITIONS THEREFOR” (Centre for Addiction and Mental Health, priority 2018, published 2022)
Entries after “also recorded” stand apart in the source; their conditions may differ.

Experiments:
GR-FKBP51 complex = target: T1, GR-FKBP51 complex (Mus musculus, UniProt Q64378); test: Co-immunoprecipitation of GR-FKBP51 complex in acute mouse brain slices treated with peptide; format: cell-based; settings: versus control TAT peptide
T1 construct: from tissue; host or cells: C57Bl/6 mouse brain (acute slices; whole-brain lysate) and blood lymphocytes
T1 sequence (Q64378 1-456): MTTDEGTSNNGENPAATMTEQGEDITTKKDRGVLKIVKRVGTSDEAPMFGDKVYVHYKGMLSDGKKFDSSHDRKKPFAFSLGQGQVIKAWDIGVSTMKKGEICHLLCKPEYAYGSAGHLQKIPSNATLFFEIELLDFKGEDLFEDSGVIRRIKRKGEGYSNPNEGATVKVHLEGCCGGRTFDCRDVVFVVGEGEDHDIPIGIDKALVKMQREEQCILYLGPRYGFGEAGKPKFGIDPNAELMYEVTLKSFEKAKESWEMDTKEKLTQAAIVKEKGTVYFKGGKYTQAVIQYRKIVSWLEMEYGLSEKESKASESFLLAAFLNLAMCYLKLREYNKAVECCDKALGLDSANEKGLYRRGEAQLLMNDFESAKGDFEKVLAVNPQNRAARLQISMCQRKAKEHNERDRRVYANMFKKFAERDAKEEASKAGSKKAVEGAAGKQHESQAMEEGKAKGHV
Description: Thus, it is concluded that the GRNT-4-1 region is important for GR-FKBP51 complex formation, and that GRpep disrupted the GR-FKBP51 complex.
(§1) Co-immunoprecipitation and Western blot analyses were performed as previously described.^24, 25, 26 For co-immunoprecipitation, 500˜1000 μg solubilized protein was extracted from whole mouse brain and incubated with primary antibody or control IgG (2˜4 μg) for 4 hrs at 4° C., followed by the addition of 25 μl protein A/G plus agarose (Santa Cruz Biotechnology) for 12 hrs. Pellets were washed, boiled for 5 min in SDS sample buffer and subjected to SDS-PAGE. 50˜100 μg of total protein extract was used as control in each experiment. After transfer of proteins into nitrocellulose, membranes were Western blotted with the primary antibodies. The intensity of protein level was quantified by densitometry (software: ImageLab, Bio-Rad).
(§2) Acute brain slices (350 μm thick) were prepared from C57Bl/6 mice with a McIlwain tissue chopper (Mickle Laboratory Engineering, Gomshall, United Kingdom). After being dissected from the brain, mouse cerebral hemispheres were left for 5 min in ice-cold artificial cerebrospinal fluid (aCSF) containing 126 mM NaCl, 2.5 mM KCl, 1 mM MgCl2, 1 mM CaCl2, 1.25 mM KH2PO4, 26 mM NaHCO3 and 20 mM glucose, which was bubbled continuously with carbogen (95% O2/5% CO2). […]

fear-conditioned mice = test: Cued fear conditioning, peptide injected into right amygdala or motor cortex; format: in vivo, mouse
Description: Next, testing was performed to determine whether disrupting the GR-FKBP51 complex could reduce freezing behaviors in fear-conditioned mice as a model for PTSD-related symptoms. […] The animals were then subjected to two days of extinction, where the same cues were presented without foot shock, before cued fear memory was assessed. One hour before the fear memory assessment, animals were injected with either control peptide (TAT) or treatment peptide (TAT-GRpep) into the right amygdala. […] However, two-way ANOVA confirmed a significant effect of the cue (F1, 46=10.387, p<0.01) and peptide (F1,46=7.708, p<0.01). […] Both treatment groups reacted similarly to the cue (p=NS; FIG. 3E).
Some of the animals were later subjected to implantation of cannula into either amygdala (AP−1.5, LM−3.0, DV−4.8) or motor cortex (AP+2.1, LM−2.0, DV−1.0). Following surgeries, animals were allowed one week to recover before subjected to any experimental procedures.
Animals were first given a five-minute habituation to the apparatus (Habitest, Colbourne Instruments). Then, animals were exposed to 30 seconds of cue exposure (an in-house white light), which co-terminated with one second of foot-shock (0.5 mA). […]
The expression of fear (in a different context from training) was assessed 24 hours after the last extinction training. […] The duration of freezing behaviors was recorded by a blinded experimenter. […]

[1] = tested on: GR phosphorylation at S211; test: Western blot of GR phosphorylation at S211 in brain lysate of fear-conditioned mice; format: in vivo, mouse; settings: brain lysate of fear-conditioned mice injected with TAT or TAT-GRpep; p<0.05, n=3
Source text: To further investigate these findings, surface plasmon resonance (SPR) was used to estimate association and dissociation rates between GR and FKBP51. […] Thus, GR S211 phosphorylation seems to reduce GR affinity for FKBP51. Conversely, disruption of the GR-FKBP51 complex with TAT-GRpep could increase GR S211 phosphorylation, which is what was observed when comparing fear-conditioned mice treated with TAT-GRpep vs. TAT control or no treatment (FIG. 5 I-J).
as §1, with “Bio-Rad). […]” for “Bio-Rad).”

GR-FKBP52 complex = test: Co-immunoprecipitation of GR-FKBP52 complex in mouse brain slices; format: cell-based; settings: 10 μM, 30 min, vs untreated controls or TAT alone, p<0.05, n=3
Description: To test this hypothesis, the effect of TAT-GRpep on GR-FKBP52 levels was examined using co-immunoprecipitation. […] Similar results were also obtained using confocal microscope in primary mouse neuron cultures.
as §1, §2

nuclear GR = test: Nuclear protein isolation, nuclear GR in brain of fear-conditioned mice; format: in vivo, mouse; settings: 3 nmol/g i.p, vs TAT alone or saline, p<0.05, n=4
Description: Nuclear protein isolation assays were performed in acute mouse brain slices or mouse brain tissue using the Nuclear Protein Extraction Kit (Bio Basic Inc., Amherst, N.Y.). Briefly, after treatment with TAT or TAT-GRpep, mouse brain slices were harvested for nuclear protein extraction according to the manufacturer's instructions.

Sequence: GRKKRRQRRRPQSPWRSDLLIDENCLL (Amino Acid Sequence of TAT-GRpep Peptide)
- GR-FKBP51 complex level (co-immunoprecipitation) (GR-FKBP51 complex): able to disrupt the GR-FKBP51 complex; also recorded: reduced GR-FKBP51 levels
- freezing behavior, cued fear memory assessment (fear-conditioned mice; injected into right amygdala one hour before assessment, after two days of extinction, vs control peptide, p<0.01): significantly lower level of freezing behavior; also recorded: significantly less freezing than controls
- freezing behavior, cued fear memory assessment (fear-conditioned mice; peptide infused into motor cortex instead of amygdala, p=NS): did not affect freezing
- GR phosphorylation at S211 [1]: able to block the decrease of GR phosphorylation at S211; also recorded: blocked the decrease in GR S211 phosphorylation
- GR-FKBP52 complex (FKBP52 co-immunoprecipitated by GR antibody) (GR-FKBP52 complex): more FKBP52 was co-immunoprecipitated by GR antibody; also recorded: significantly increased the amount of GR-FKBP52 complex
- nuclear GR level / GR nuclear localization (nuclear GR): higher levels of nuclear GR; also recorded: increased
